Measurements reported in patent publication US20090239944A1, “Novel Use of Organic Compounds” (priority 2005, published 2009).

Tests used:
C3H10T1/2 cells [1] = assay: Glucose uptake of adipocytes (radioactive 2-deoxyglucose, basal, absence of insulin); assay type: cell-based; conditions: 48-h treatment; for Basal glucose uptake: absence of insulin, ± SEM, DMSO control = 100%; for Basal glucose uptake (result in words): different concentrations
Description: C3H10T1/2 cells (ATCC CCL-226) were grown for 5 days to confluence in DMEM supplemented with 10% FBS medium and induced with a mixture of insulin, dexamethasone and 3-isobutyl-1-methylxanthine to differentiate into adipocytes. Nine days after the beginning of induction, cells were treated for 48-h with the compound of the formula I-1 at different concentrations as shown in Table 1. Glucose uptake was determined using radioactive 2-deoxyglucose (10 μM 2-DG in HBS+0.5 μCi/ml of 3-[H]-2-DG), measuring glucose uptake in the absence of insulin. Basal glucose uptake was increased by 48-h treatment with the compound of the formula I-1 in a dose-dependent manner (Table 1). Growing, induction and treatment of C3H10T1/2 cells were exactly as described in Example 1, with the exception that the compound of the formula I-3 at different concentrations was used instead of the compound of the formula I-1. […] Control: C3H10T1/2 cells treated for 48 h with DMSO at the same concentration as compound-treated cells and set at 100%

C3H10T1/2 cells [2] = assay: Differentiation of adipocytes (oil Red O staining, absorbance at 540 nm); assay type: cell-based; conditions: for Differentiation of the cells into adipocytes (result in words): co-treatment with insulin, compared with insulin alone; for Mean OD ± SEM (oil Red O, 540 nm): 10-day treatment
Description: C3H10T1/2 cells were grown to confluence as described in Example 1, then treated for 10 days with insulin alone (negative control) or with a mixture of insulin and the compound of the formula I-1 at different concentrations (see Table 2), with re-feeding with fresh medium and compounds every 48-h. After 10-days of treatment, the cells were stained with oil Red O as follows: cells were washed 2× in PBS and fixed in 10% formalin at room temperature for 1 h. After removal of formalin, 200 μl of oil Red O staining solution (3:2 mixture of 0.5% w/v oil Red O stock solution and water) was applied to each well. The cells were incubated for 20 min at room temperature, washed twice in 2×PBS and incubated for 10 min with 300 μl of isopropanol/well for oil Red O extraction. Quantification of oil Red O was determined by measuring absorbance at 540 nm (mean OD). […] C3H10T1/2 cells were grown and treated as described in Example 4 with the exception that the compound of the formula I-2 was used instead of the compound of the formula I-1. The measurement of adipocyte differentiation using the oil Red O assay was performed as described in Example 4. […] C3H10T1/2 cells were grown and treated as described in Example 4 with the exception that the compound of the formula I-3 was used instead of the compound of the formula I-1. The measurement of adipocyte differentiation using the oil Red O assay was performed as described in Example 4.

C57BLKS/J db/db mice = assay: Glucose tolerance, 14-day study in db/db mice (blood glucose, OGTT, FFA); assay type: in vivo
Description: The efficacy of the compound of the formula I-1 on glucose tolerance was tested in a 14-day study in C57BLKS/J db/db mice (n=10/group), a model of late type 2 diabetes mellitus with severe hyperglycemia.
Male db/db mice were obtained from Jackson Laboratory (Bar Harbor, Me., USA). Adult mice aged 8 weeks were used in the experiment. Mice were housed individually in plastic cages with bedding and allowed free access to standard rodent food and tap water. The animal rooms were controlled for temperature (24° C.), humidity (55%), and light (12-h light-dark cycle). The animals were randomized in two groups and the compound of the formula I-1 was administered orally to one of the groups for 14 days at a dose of 200 mg/kg BW/day. After 14 days of treatment the concentration of glucose was determined in blood from fed animals, i.e., animals which were not restricted from food. After a period of 10 days of treatment an oral glucose tolerance test (OGTT) was performed. For the OGTT mice were fasted overnight and then a 1-g glucose/kg BW solution was orally administered. Blood samples were taken before and 15, 30, 45, 60, 90, 120, 150, 180 min after the glucose challenge for determination of blood glucose levels and then the area under the curve (AUC) was determined. Blood glucose was measured by a glucose analyzer (Glucotrend Premium, Roche Diagnostics, Rotkreuz, Switzerland). The glucose and the free fatty acid (FFA) levels of fed animals (see above) were lowered after 14 days of treatment with the compound of the formula I-1. After 10 days of treatment with the compound of the formula I-1 the glucose levels of fasted animals, i.e., animals with an overnight fasting (see above) were decreased as compared to the untreated control group.

[3] = compound 1 × 10^−5 M + insulin 1 × 10^−7 M
[4] = after 14 days of treatment, 200 mg/kg BW/day orally

COc1ccc(/C=C/C(=O)c2ccc(OC(=O)c3ccccc3)cc2)cc1OC [I-3]
Basal glucose uptake (C3H10T1/2 cells [1]; 1 × 10^−5 M): 133.28 ± 23.4 % of control | Basal glucose uptake (C3H10T1/2 cells [1]; 1 × 10^−6 M): 105.37 ± 2.21 % of control | Basal glucose uptake (C3H10T1/2 cells [1]; 2 × 10^−4 M): 142.84 ± 18.05 % of control | Basal glucose uptake (C3H10T1/2 cells [1]; 5 × 10^−5 M): 116.17 ± 15.96 % of control | Basal glucose uptake (result in words) (C3H10T1/2 cells [1]): increase | Differentiation of the cells into adipocytes (result in words) (C3H10T1/2 cells [2]): higher differentiation of the cells into adipocytes than insulin alone | Mean OD ± SEM (oil Red O, 540 nm) (C3H10T1/2 cells [2]; [3]): 0.53 ± 0.025 | Mean OD ± SEM (oil Red O, 540 nm) (C3H10T1/2 cells [2]; compound 2 × 10^−4 M + insulin 1 × 10^−7 M): 0.34 ± 0.087 | Mean OD ± SEM (oil Red O, 540 nm) (C3H10T1/2 cells [2]; compound 5 × 10^−5 M + insulin 1 × 10^−7 M): 0.53 ± 0.017

CC1(COc2ccc(CC3SC(=O)NC3=O)cc2)CCCCC1 (centres unmarked) [Ciglitazone, ciglitazone, reference compound]
Basal glucose uptake (C3H10T1/2 cells [1]; 5 × 10^−5 M): 496.178 ± 61.86 % of control

Insulin: insulin alone, negative control of the adipocyte differentiation test
Mean OD ± SEM (oil Red O, 540 nm) (C3H10T1/2 cells [2]; insulin 1 × 10^−7 M alone (negative control)): 0.28 ± 0.03

COc1ccc(C(=O)/C=C/c2c(CCN(C)C(C)=O)cc3c(c2OC)OCO3)cc1 [I-1]
Basal glucose uptake (C3H10T1/2 cells [1]; 1 × 10^−5 M): 94.58 ± 0.95 % of control | Basal glucose uptake (C3H10T1/2 cells [1]; 1 × 10^−6 M): 97.6 ± 22.9 % of control | Basal glucose uptake (C3H10T1/2 cells [1]; 2.4 × 10^−5 M): 128.6 ± 0.89 % of control | Basal glucose uptake (C3H10T1/2 cells [1]; 5 × 10^−4 M): 194.058 ± 0.05 % of control | Basal glucose uptake (result in words) (C3H10T1/2 cells [1]): increased | Differentiation of the cells into adipocytes (result in words) (C3H10T1/2 cells [2]): higher differentiation of the cells into adipocytes than insulin alone | Mean OD ± SEM (oil Red O, 540 nm) (C3H10T1/2 cells [2]; [3]): 0.69 ± 0.019 | glucose AUC of an OGTT (result in words) (C57BLKS/J db/db mice; 1 g glucose/kg body weight, day 10): significantly reduced | Glucose AUC (C57BLKS/J db/db mice; OGTT (1 g glucose/kg BW) on day 10, 0-180 min, 200 mg/kg BW/day orally, control 69673): 54295 | glucose levels of fasted animals (result in words) (C57BLKS/J db/db mice; after 10 days of treatment, compared to the untreated control group): decreased | free fatty acid (FFA) levels of fed animals (result in words) (C57BLKS/J db/db mice; [4]): lowered | glucose levels of fed animals (result in words) (C57BLKS/J db/db mice; [4]): lowered | blood glucose levels during the OGTT (result in words) (C57BLKS/J db/db mice; compared with the control group, 15-180 min after glucose challenge): lower at all time points | Blood Glucose Fasted (C57BLKS/J db/db mice; db/db mice, 200 mg/kg BW/day orally, after 10 days, overnight fasting, control 175): 135 mg/dL | FFA (C57BLKS/J db/db mice; db/db mice, 200 mg/kg BW/day orally, after 14 days, fed animals, control 15.95): 12.38 mg/dL | Blood Glucose Fed (C57BLKS/J db/db mice; db/db mice, 200 mg/kg BW/day orally, after 14 days, fed animals, control 859): 771 mg/dL

COc1ccc(C(=O)/C=C/c2cccc(OC(=O)/C=C/c3ccccc3)c2)cc1 [I-2]
Differentiation of the cells into adipocytes (result in words) (C3H10T1/2 cells [2]): higher differentiation of the cells into adipocytes than insulin alone | Mean OD ± SEM (oil Red O, 540 nm) (C3H10T1/2 cells [2]; [3]): 0.45 ± 0.037
